Test results from US6538106B1, “Compositions and methods for treating infections using analogues of indolicidin” (priority 1996, dated 2003).
Where a name gives a salt, the structure may show the parent alone. Read-outs that look alike come from different tables or passages of the source. Peptide text beside a SMILES is read from it.

Columns and labels:
[1] = Acute single dose toxicity in isotonic saline (ip, iv, sc); format: in vivo, Swiss CD1 mice; conditions: 5 days
Protocol: The acute, single dose toxicity of various indolicidin analogues is tested in Swiss CD1 mice using various routes of administration. In order to determine the inherent toxicities of the peptide analogues in the absence of any formulation/delivery vehicle effects, the peptides are all administered in isotonic saline with the final pH between 6 and 7.
After administration, the mice are observed for a period of 5 days.

E. cloacae [2] = test: Broth dilution assay (MIC); format: cell-based; conditions: E. cloacae ECL007
Protocol: (§1) This assay also uses calcium and magnesium supplemented Mueller Hinton broth as the growth medium. Typically 100 μl of broth is dispensed into each well of a 96-well microtitre plate and 100 μl volumes of two-fold serial dilutions of the peptide analogue are made across the plate. One row of wells receives no peptide and is used as a growth control. Each well is inoculated with approximately 5×10^5 CFU of bacteria and the plate is incubated at 35-37° C. for 16-20 hours.
(§2) For example, MIC values were established for a series of peptide analogues against S. aureus strains.

K. pneumoniae [3] = test: Broth dilution assay (MIC); format: cell-based; conditions: K. pneumoniae KP001
Protocol: as §1, §2

P. aeruginosa [4] = test: Broth dilution assay (MIC); format: cell-based; conditions: P. aeruginosa PA004
Protocol: as §1, §2

E. faecalis [5] = test: Broth dilution assay (MIC); format: cell-based; conditions: E. faecalis EFS004
Protocol: as §1, §2

S. epidermidis = test: Broth dilution assay (MIC); format: cell-based; conditions: S. epidermidis SE005
Protocol: as §1, §2

S. marcescens [6] = test: Broth dilution assay (MIC); format: cell-based; conditions: S. marcescens SMS003
Protocol: as §1, §2

S. aureus [7] = test: Broth dilution assay (MIC); format: cell-based; conditions: S. aureus SA002
Protocol: as §1, §2

S. maltophilia [8] = test: Broth dilution assay (MIC); format: cell-based; conditions: S. maltophilia SMA002
Protocol: as §1, §2

A. calcoaceticus [9] = test: Broth dilution assay (MIC); format: cell-based; conditions: A. calcoaceticus AC001
Protocol: as §1, §2

E. coli [10] = test: Broth dilution assay (MIC); format: cell-based; conditions: E. coli ECO005
Protocol: as §1, §2

[11] = tested on: S. epidermidis (ATCC # 12228); test: S. epidermidis infection, mouse survival; format: in vivo, mice
E.coli strain ML-35 = format: cell-based; conditions: for Growth time of cells at which maximum activity occurs: 50 μg/ml peptide
S. marcescens [12] = test: MIC of APS-modified and parent peptides; format: cell-based; conditions: S. marcescens SMS003
E. coli [13] = test: MIC of APS-modified and parent peptides; format: cell-based; conditions: E. coli ECO005
[14] = tested on: MSSA (Smith, ATCC # 19640); test: MSSA infection, mouse survival; format: in vivo, mice; conditions: formulation D
P. aeruginosa [15] = test: MIC of APS-modified and parent peptides; format: cell-based; conditions: P. aeruginosa PA004
MRSA (ATCC # 33591) = test: MRSA infection, mouse survival; format: in vivo, mice; conditions: for Percentage of Animals Surviving, Treatment: iv, formulation D
E. cloacae [16] = test: MIC of APS-modified and parent peptides; format: cell-based; conditions: E. cloacae ECL007
Liposome dye release = format: biochemical
Protocol: In this example, a dye pair consisting of the fluorescent molecule 8-aminonapthalene-1,3,6-trisulfonic acid (ANTS) and its quencher molecule p-xylene-bis-pyridinium bromide (DPX) are used. The mixture of free dye molecules, dye free liposomes, and liposomes containing encapsulated ANTS-DPX are separated by size exclusion chromatography. In the assay, the test peptide is incubated with the ANTS-DPX containing liposomes and the fluorescence due to ANTS release to the outside of the liposome is measured over time.
Using this assay, peptide activity, measured by dye release, is shown to be extremely sensitive to the composition of the liposomes at many liposome to peptide ratios (L/P) (FIG. 7). […] This […] selectivity may mimic that observed […] for bacterial cells in the presence of mammalian cells.
ANTS/DPX can be replaced with fluorescein isothiocyanate-labeled dextran (FD-4), molecular weight 4,400, in the egg PC liposomes.

E. faecalis [17] = test: MIC of APS-modified and parent peptides; format: cell-based
Protocol: (§3) All biological assays that compare APS-modified peptides with unmodified peptides are performed on an equimolar ratio. The concentration of APS-modified peptides can be determined by spectrophotometric measurement, which is used to normalize concentrations for biological assays.
(§4) APS-modified peptides are at least as potent as the parent peptides in in vitro assays performed as described herein. MIC values against gram positive bacteria are presented for several APS-modified peptides and compared with the values obtained using the parent peptides (Table 22).

S. aureus [18] = test: MIC of APS-modified and parent peptides; format: cell-based
Protocol: as §3, §4

A. calcoaceticus [19] = test: MIC of APS-modified and parent peptides; format: cell-based; conditions: A. calcoaceticus AC002
K. pneumoniae [20] = test: MIC of APS-modified and parent peptides; format: cell-based; conditions: K. pneumoniae KP001
S. maltophilia [21] = test: MIC of APS-modified and parent peptides; format: cell-based; conditions: S. maltophilia SMA002

| Molecule | MIC (E. cloacae [2]) | MIC (K. pneumoniae [3]) | MIC (P. aeruginosa [4]) | MIC (E. faecalis [5]) | MIC (S. epidermidis) | MIC (S. marcescens [6]) | MIC (S. aureus [7]) | MIC (S. maltophilia [8]) | MIC (A. calcoaceticus [9]) | MIC (E. coli [10]) | Corrected MIC (S. marcescens [12]) | Corrected MIC (E. coli [13]) | Corrected MIC (P. aeruginosa [15]) | Corrected MIC (E. faecalis [17]; E. faecalis EFS001) | Corrected MIC (E. faecalis [17]; E. faecalis EFS004) | Corrected MIC (E. faecalis [17]; E. faecalis EFS008) | Corrected MIC (S. aureus [18]; S. aureus SA010) | Corrected MIC (S. aureus [18]; S. aureus SA014) | Corrected MIC (S. aureus [18]; S. aureus SA018) | Corrected MIC (S. maltophilia [21]) | other results |
| --- | --- | --- | --- | --- | --- | --- | --- | --- | --- | --- | --- | --- | --- | --- | --- | --- | --- | --- | --- | --- | --- |
| CC[C@H](C)[C@H](N)C(=O)N[C@@H](CC(C)C)C(=O)N[C@@H](CCCCN)C(=O)N[C@@H](CCCCN)C(=O)N[C@@H](Cc1c[nH]c2ccccc12)C(=O)N1CCC[C@H]1C(=O)N[C@@H](Cc1c[nH]c2ccccc12)C(=O)N[C@@H](Cc1c[nH]c2ccccc12)C(=O)N1CCC[C@H]1C(=O)N[C@@H](Cc1c[nH]c2ccccc12)C(=O)N[C@@H](CCCNC(=N)N)C(=O)N[C@@H](CCCNC(=N)N)C(=O)N[C@@H](CCCCN)C(N)=O [MBI 11CN HCl, I L K K W P W W P W R R K] (H-ILKKWPWWPWRRK-NH2; N-terminus assumed) | – | – | – | – | – | – | – | – | – | – | – | – | – | – | – | – | – | – | – | – | LD90-100 [1]: 8.0 mg/kg |
| I L K K I P I I P I R R K [MBI 11A2CN] | >256 µg/mL | >256 µg/mL | >256 µg/mL | >256 µg/mL | 256 µg/mL | >256 µg/mL | >256 µg/mL | >256 µg/mL | >256 µg/mL | >256 µg/mL | – | – | – | – | – | – | – | – | – | – | – |
| I L K K W P W W P W R R K [MBI 11CN] | – | – | – | – | – | – | – | – | – | – | >128 µg/mL | 16 µg/mL | >128 µg/mL | 32 µg/mL | 8 µg/mL | 64 µg/mL | 2 µg/mL | 16 µg/mL | 64 µg/mL | 128 µg/mL | survival of mice ([11]; iv, formulation D, treatment 15 minutes post-infection): Efficacy is observed at all three dose levels; survival of mice ([11]; iv, formulation D, treatment 30 minutes post-infection): less activity; survival of mice ([11]; iv, formulation D, treatment 60 minutes post-infection): no significant effect; survival of mice ([11]; single iv injection of […] 15 minutes post-infection): best survival rate; ONPG hydrolysis diminished, cells pre-incubated with valinomycin vs no pre-incubation (E.coli strain ML-35): approximately 50%; mice rescued from MSSA infection ([14]; 35.7 mg/kg ip, 60 minutes post-infection): 100%; activity at lower dose levels ([14]; dose levels lower than 35.7 mg/kg ip): little or no activity; survival of mice (MRSA (ATCC # 33591); 1 mg/kg (20 min) protocol: five […] iv injections at −10, −5, 0, +5, +10 mins): delayed the death of the mice to a significant extent; survival of mice (MRSA (ATCC # 33591); 1 mg/kg (2 hr) protocol: five […] iv injections 1 hour apart): no improvement in survivability over the negative control; survival of mice (MRSA (ATCC # 33591); 5 mg/kg protocol: three 5.5 mg/kg iv injections at −5, +55, +115 mins): no improvement in survivability over the negative control; Percentage of Animals Surviving, Treatment (MRSA (ATCC # 33591); 6 hours post-infection): 70%; Percentage of Animals Surviving, Treatment (MRSA (ATCC # 33591); 10 hours post-infection): 30%; Corrected MIC (E. cloacae [16]): >128 µg/mL; Release of FD-4 (fluorescein isothiocyanate-labeled dextran, MW 4,400) (Liposome dye release; egg PC liposomes): No increase in FD-4 fluorescence is detected; Membrane permeabilizing activity (ANTS/DPX dye release) (Liposome dye release; egg PC liposomes with cholesterol added, even at very high lipid to peptide molar ratios): virtually abolishes membrane permeabilizing activity; Corrected MIC (S. aureus [18]; S. aureus SA011): 8 µg/mL; Corrected MIC (S. aureus [18]; S. aureus SA025): 4 µg/mL; Corrected MIC (S. aureus [18]; S. aureus SA093): 2 µg/mL; Corrected MIC (A. calcoaceticus [19]): 4 µg/mL; Corrected MIC (K. pneumoniae [20]): 128 µg/mL |
| I L P W K W P W W P W R R [MBI 10CN] | 256 µg/mL | 64 µg/mL | >256 µg/mL | 64 µg/mL | 8 µg/mL | >256 µg/mL | 16 µg/mL | 64 µg/mL | 64 µg/mL | 64 µg/mL | – | – | – | – | – | – | – | – | – | – | ONPG hydrolysis diminished, cells pre-incubated with valinomycin vs no pre-incubation (E.coli strain ML-35): approximately 50%; survival at lower doses ([14]; below 14.5 mg/kg ip): clear dose-dependent survival |
| I L R R W P W W P W R K [MBI 11B2CN] | >256 µg/mL | >256 µg/mL | 256 µg/mL | 64 µg/mL | 4 µg/mL | >256 µg/mL | 32 µg/mL | 32 µg/mL | 128 µg/mL | 64 µg/mL | – | – | – | – | – | – | – | – | – | – | – |
| I L R R W P W W P W R R K [MBI 11B1CN] | >256 µg/mL | >256 µg/mL | 64 µg/mL | 64 µg/mL | 4 µg/mL | >256 µg/mL | 32 µg/mL | 32 µg/mL | 64 µg/mL | 64 µg/mL | >128 µg/mL | 8 µg/mL | 128 µg/mL | – | 8 µg/mL | 32 µg/mL | 1 µg/mL | 8 µg/mL | 16 µg/mL | 128 µg/mL | Corrected MIC (S. aureus [18]; S. aureus SA025): 1 µg/mL; Corrected MIC (S. aureus [18]; S. aureus SA093): 1 µg/mL; Corrected MIC (A. calcoaceticus [19]): 2 µg/mL |
| I L R W P W W P W R R K [MBI 11B7CN] | >256 µg/mL | 256 µg/mL | 256 µg/mL | 64 µg/mL | 4 µg/mL | >256 µg/mL | 16 µg/mL | 32 µg/mL | 64 µg/mL | 64 µg/mL | – | 8 µg/mL | – | 8 µg/mL | 8 µg/mL | 32 µg/mL | – | – | – | 32 µg/mL | Growth time of cells at which maximum activity occurs (E.coli strain ML-35; early mid-log): 140 min; Growth time of cells at which maximum activity occurs (E.coli strain ML-35; late mid-log): 230 min; Effect on membrane permeabilizing activity (E.coli strain ML-35; peptide pre-incubated in HEPES/sucrose buffer with 5 mM Mg2+): significant inhibition; Effect on membrane permeabilizing activity (E.coli strain ML-35; peptide pre-incubated in HEPES/sucrose buffer with 150 mM NaCl): significant inhibition |
| i L K K W P W W P W R R k [MBI 11E3CN] | – | – | – | – | – | – | – | – | – | – | >128 µg/mL | 8 µg/mL | 128 µg/mL | 8 µg/mL | 2 µg/mL | 16 µg/mL | 1 µg/mL | 4 µg/mL | 16 µg/mL | 64 µg/mL | Corrected MIC (E. cloacae [16]): >128 µg/mL; Corrected MIC (S. aureus [18]; S. aureus SA011): 4 µg/mL; Corrected MIC (S. aureus [18]; S. aureus SA025): 1 µg/mL; Corrected MIC (S. aureus [18]; S. aureus SA093): 1 µg/mL; Corrected MIC (A. calcoaceticus [19]): 2 µg/mL; Corrected MIC (K. pneumoniae [20]): 8 µg/mL |
